# Tests used:
# KRas^G12D = molecular target: T1, KRas^G12D (Homo sapiens, UniProt P01116, G12D); test: KRas binding assay (TR-FRET displacement of Cy5 labelled tracer)
# T1 construct: […]; biotin (biotinylated); purchased Accelegan Inc
# Procedure: (§4) The ability of a compound to bind to KRas was measured using a TR-FRET displacement assay. […] After a 60-minute incubation at room temperature, the reaction was measured using a BMG LABTECH CLARIO star Plus via TR-FRET. […] The POC values were fit to a 4-parameter IC50 equation and the IC50 value reported.
# KRas^G12R = molecular target: T2, KRas^G12R (Homo sapiens, UniProt P01116, G12R); test: as above
# T2 construct: […]; biotin (biotinylated); purchased Accelegan Inc
# Procedure: as §4
# KRas^G12V = molecular target: T3, KRas^G12V (Homo sapiens, UniProt P01116, G12V); test: as above
# T3 construct: […]; biotin (biotinylated); purchased Accelegan Inc
# Procedure: as §4
# ASPC1 cells, pERK = test: Inhibition of KRas phosphorylation of ERK (Cisbio HTRF Advanced pERK assay); type: cell-based; details: Homo sapiens, ASPC1, 3 h, AsPC-1 cells, read-out: Inhibition (HTRF IC50 nM) of KRas-mediated Phosphorylation of ERK, AsPC-1
# Procedure: (§1) Inhibition of KRas Phosphorylation of ERK (HTRF) by Exemplary Compounds of Formula (I)
# (§2) Cisbio HTRF Advanced pERK Assay Catalog #64AERPEH
# (§3) • Day 1: Seed 6,000 cells/well −25 μl/well in 384-well white solid bottom plate; RPM1_10% FBS. […] To harvest cells from flask using 0.05% Trypsin/EDTA solution. Add 10 mL of media to stop trypsinizing. Pipette the cells into a conical bottom 50 mL centrifuge tube and centrifuge 5 min×1000 rpm. • 2. Re-suspend the cell pellet in media, take a cell count, and then adjust the cell density using fresh media. • 3. Seed 6,000 cells into cell culture plate with […]. The • 4. Incubate cell plate overnight in a 37° C., 5% CO2 incubator. Compound Titrations • 1. Use Tecan to complete the compound addition. Compounds start from 10 uM top, 3-fold dilution, and 10 doses. The final DMSO concentration is 0.8%. Dispensed 0.2 uM Trametinib as Min control. • 2. Incubate cell plate for 3 hrs in the incubator. Detection with Cisbio pERK HTRF Kit • 1. Dilute 1 volume of 4× lysis buffer with 3 volumes of deionized water. Then, add 100× the blocking reagent. Keep lysis buffer on the ice. • 2. At the end of the compound treatment, flick-off the media. • 3. Add 35 μL of lysis buffer per well using a Multidrop Combi. Then place on a plate agitator shaking at 300 rpm at 4° C. for 40 mins. • 4. Make up the HTRF antibody buffer. For each assay plate, mix 50 μL of d2-conjugate antibody with 950 μL of detection buffer. Similarly, mix 50 μL of Cryptate antibody with 950 μL of detection buffer. Then mix the two diluted antibodies together. • 5. Dispense 3.4 μL the antibody buffer to wells of an empty assay plate. Seal the plate and centrifuge plate 30 sec×1000 rpm. • 6. At the end of the 4° C. lysis, centrifuge the lysate plates 3 mins×1500 rpm. • 7. Use the Bravo to transfer 13.6 μL of lysate from cell culture plate to assay plate. Then incubate assay plate for 2 hrs at room temperature. • 8. At the end of incubation, read plate on the Envision after centrifuging plate 30 sec×1000 rpm.
# H727 cells, pERK = test: as above; type: cell-based; details: Homo sapiens, NCI-H727, 3 h, read-out: Inhibition (HTRF IC50 nM) of KRas-mediated Phosphorylation of ERK, H727
# Procedure: as §1, §2, §3
# KRas^WT = molecular target: T4, KRas^WT (Homo sapiens, UniProt P01116); test: KRas binding assay (TR-FRET displacement of Cy5 labelled tracer)
# T4 construct: […]; biotin (biotinylated); purchased Accelegan Inc
# Procedure: as §4
# KRas^G12A = molecular target: T5, KRas^G12A (Homo sapiens, UniProt P01116, G12A); test: as above
# T5 construct: […]; biotin (biotinylated); purchased Accelegan Inc
# Procedure: as §4
# KRas^G12S = molecular target: T6, KRas^G12S (Homo sapiens, UniProt P01116, G12S); test: as above
# T6 construct: […]; biotin (biotinylated); purchased Accelegan Inc
# Procedure: as §4
# KRas^G12C = KRas^G12C (Homo sapiens, UniProt P01116, G12C); test: biochemical
# Procedure: as §4
# KRas^G13D = KRas^G13D (Homo sapiens, UniProt P01116, G13D); test: biochemical
# Procedure: as §4
# KRas^Q61H = KRas^Q61H (Homo sapiens, UniProt P01116, Q61H); test: biochemical
# Chain of KRas^Q61H (P01116 1-169 isoform P01116-2 Q61H): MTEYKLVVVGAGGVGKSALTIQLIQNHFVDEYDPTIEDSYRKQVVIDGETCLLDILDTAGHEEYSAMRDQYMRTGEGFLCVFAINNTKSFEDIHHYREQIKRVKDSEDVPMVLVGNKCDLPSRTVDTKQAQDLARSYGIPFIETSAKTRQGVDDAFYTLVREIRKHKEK
# Procedure: as §4
# T5 sequence (P01116 1-169 isoform P01116-2 G12A): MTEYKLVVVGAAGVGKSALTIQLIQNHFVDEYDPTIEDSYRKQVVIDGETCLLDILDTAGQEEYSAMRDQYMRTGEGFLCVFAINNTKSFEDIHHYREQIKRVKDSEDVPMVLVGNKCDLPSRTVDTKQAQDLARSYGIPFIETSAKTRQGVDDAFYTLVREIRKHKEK
# T1 sequence (P01116 1-169 isoform P01116-2 G12D): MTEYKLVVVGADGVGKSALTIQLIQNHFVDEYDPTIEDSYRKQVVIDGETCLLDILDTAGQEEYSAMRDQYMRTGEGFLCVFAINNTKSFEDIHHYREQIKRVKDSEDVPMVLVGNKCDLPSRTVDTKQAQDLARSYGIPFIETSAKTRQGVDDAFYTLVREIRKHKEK
# Chain of KRas^G12C (P01116 1-169 isoform P01116-2 G12C): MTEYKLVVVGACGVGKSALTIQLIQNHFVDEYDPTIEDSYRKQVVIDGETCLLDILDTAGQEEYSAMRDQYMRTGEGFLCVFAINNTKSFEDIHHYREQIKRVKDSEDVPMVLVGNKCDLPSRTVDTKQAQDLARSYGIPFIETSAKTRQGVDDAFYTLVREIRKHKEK
# T4 sequence (P01116 1-169 isoform P01116-2): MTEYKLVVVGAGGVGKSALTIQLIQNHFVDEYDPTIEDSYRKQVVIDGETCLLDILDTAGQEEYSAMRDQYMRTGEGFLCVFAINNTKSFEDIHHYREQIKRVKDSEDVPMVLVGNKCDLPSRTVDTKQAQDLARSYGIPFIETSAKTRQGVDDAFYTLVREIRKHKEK
# T2 sequence (P01116 1-169 isoform P01116-2 G12R): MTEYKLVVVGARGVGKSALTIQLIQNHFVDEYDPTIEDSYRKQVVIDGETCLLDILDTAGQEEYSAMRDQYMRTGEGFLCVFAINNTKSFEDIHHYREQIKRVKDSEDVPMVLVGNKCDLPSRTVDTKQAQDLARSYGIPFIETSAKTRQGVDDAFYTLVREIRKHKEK
# T6 sequence (P01116 1-169 isoform P01116-2 G12S): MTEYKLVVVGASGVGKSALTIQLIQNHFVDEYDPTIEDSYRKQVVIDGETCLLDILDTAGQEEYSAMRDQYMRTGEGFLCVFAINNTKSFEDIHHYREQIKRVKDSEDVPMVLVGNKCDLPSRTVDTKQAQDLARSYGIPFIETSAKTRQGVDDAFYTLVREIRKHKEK
# T3 sequence (P01116 1-169 isoform P01116-2 G12V): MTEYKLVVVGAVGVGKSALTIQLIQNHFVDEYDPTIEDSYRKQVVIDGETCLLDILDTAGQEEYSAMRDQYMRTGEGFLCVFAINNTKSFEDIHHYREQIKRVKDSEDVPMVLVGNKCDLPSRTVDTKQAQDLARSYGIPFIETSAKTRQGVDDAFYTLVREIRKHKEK
# Chain of KRas^G13D (P01116 1-169 isoform P01116-2 G13D): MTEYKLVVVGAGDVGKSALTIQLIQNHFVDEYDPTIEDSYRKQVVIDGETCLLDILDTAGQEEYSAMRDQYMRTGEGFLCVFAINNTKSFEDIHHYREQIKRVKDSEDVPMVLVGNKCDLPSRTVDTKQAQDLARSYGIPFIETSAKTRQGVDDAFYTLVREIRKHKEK
Structure (SMILES),IC50 (KRas^G12D),IC50 (KRas^G12R),IC50 (KRas^G12V),"IC50 (ASPC1 cells, pERK)","IC50 (H727 cells, pERK)",IC50 (KRas^WT),IC50 (KRas^G12A),IC50 (KRas^G12S),IC50 (KRas^G12C),IC50 (KRas^G13D),IC50 (KRas^Q61H)
"CN1CCC[C@H]1COc1nc2c(c(N3CCOCC(C)(O)C3)n1)CCN(c1cccc3cccc(Cl)c13)C2 (stereo partly drawn) [Example 205, 4-[7-(8-chloro-1-naphthyl)-2-[[(2S)-1-methylpyrrolidin-2-yl]methoxy]-6,8-dihydro-5H-pyrido[3,4-d]pyrimidin-4-yl]-6-methyl-1,4-oxazepan-6-ol]",4690 nM,6430 nM,4700 nM,≥ 10000 nM,≥ 10000 nM,,,,,,
"Cc1cc2[nH]ncc2c(N2CCc3c(nc(OCC45CCCN4CCC5)nc3N3CCC[C@@](C)(O)C3)C2)c1C [Example 15, (R)-1-(7-(5,6-dimethyl-1H-indazol-4-yl)-2-((hexahydro-1H-pyrrolizin-7a-yl)methoxy)-5,6,7,8-tetrahydropyrido[3,4-d]pyrimidin-4-yl)-3-methylpiperidin-3-ol]",126 nM,144 nM,103 nM,1110 nM,3190 nM,,,,,,
"C[C@@]1(O)CCCN(c2nc(OCC34CCCN3CCC4)nc3c2CCN(c2cc(O)cc(Cl)c2C2CC2)C3)C1 [Example 204, (R)-1-(7-(3-chloro-2-cyclopropyl-5-hydroxyphenyl)-2-((hexahydro-1H-pyrrolizin-7a-yl)methoxy)-5,6,7,8-tetrahydropyrido[3,4-d]pyrimidin-4-yl)-3-methylpiperidin-3-ol]",6 nM,9 nM,6 nM,1530 nM,1670 nM,,,,,,
"CCc1c(F)ccc2cc(O)cc(N3CCc4c(nc(OC[C@@]56CCCN5C[C@H](F)C6)nc4N4C[C@H](O)C[C@H](C(N)=O)C4)C3)c12 [Example 187, (3S,5R)-1-(7-(8-ethyl-7-fluoro-3-hydroxynaphthalen-1-yl)-2-(((2R,7aS)-2-fluorohexahydro-1H-pyrrolizin-7a-yl)methoxy)-5,6,7,8-tetrahydropyrido[3,4-d]pyrimidin-4-yl)-5-hydroxypiperidine-3-carboxamide]",4 nM,≤ 2 nM,≤ 2 nM,5330 nM,1320 nM,,,,,,
"CCc1c(F)ccc2cc(O)cc(N3CCc4c(nc(OC[C@@]56CCCN5C[C@H](F)C6)nc4N4CC5CCC(C4)O5)C3)c12 [Example 176, 4-(4-(8-oxa-3-azabicyclo[3.2.1]octan-3-yl)-2-(((2R,7aS)-2-fluorotetrahydro-1H-pyrrolizin-7a(5H)-yl)methoxy)-5,8-dihydropyrido[3,4-d]pyrimidin-7(6H)-yl)-5-ethyl-6-fluoronaphthalen-2-ol]",78 nM,≤ 2 nM,11 nM,5940 nM,984 nM,,,,,,
"CN1CCC[C@H]1COc1nc2c(c(N3CCCC4(C3)NC(=O)NC4=O)n1)CCN(c1cccc3cccc(Cl)c13)C2 (stereo partly drawn) [Example 211, 9-[7-(8-chloro-1-naphthyl)-2-[[(2S)-1-methylpyrrolidin-2-yl]methoxy]-6,8-dihydro-5H-pyrido[3,4-d]pyrimidin-4-yl]-1,3,9-triazaspiro[4.5]decane-2,4-dione]",101 nM,34 nM,38 nM,4890 nM,2880 nM,,,,,,
"CN1CCC[C@H]1COc1nc2c(c(N3CCCC4(CNS(=O)(=O)N4)C3)n1)CCN(c1cccc3cccc(Cl)c13)C2 (stereo partly drawn) [Example 208, 9-[7-(8-chloro-1-naphthyl)-2-[[(2S)-1-methylpyrrolidin-2-yl]methoxy]-6,8-dihydro-5H-pyrido[3,4-d]pyrimidin-4-yl]-2λ6-thia-1,3,9-triazaspiro[4.5]decane 2,2-dioxide]",136 nM,350 nM,197 nM,4050 nM,6940 nM,,,,,,
"CCc1cccc2cccc(N3CCc4c(nc(OCC56CCCN5CCC6)nc4NCCS(=O)(=O)N=S(C)(C)=O)C3)c12 [Example 165, N-(dimethyl(oxo)-16-sulfaneylidene)-2-((7-(8-ethylnaphthalen-1-yl)-2-((tetrahydro-1H-pyrrolizin-7a(5H)-yl)methoxy)-5,6,7,8-tetrahydropyrido[3,4-d]pyrimidin-4-yl)amino)ethane-1-sulfonamide]",14200 nM,7470 nM,4340 nM,,,5920 nM,8670 nM,8070 nM,3870 nM,6710 nM,6550 nM
"CCc1cccc2cccc(N3CCc4c(nc(OCC56CCCN5CCC6)nc4N4CCCC(c5ncn[nH]5)C4)C3)c12 (centres unmarked) [Example 53, 4-(3-(1H-1,2,4-triazol-5-yl)piperidin-1-yl)-7-(8-ethylnaphthalen-1-yl)-2-((hexahydro-1H-pyrrolizin-7a-yl)methoxy)-5,6,7,8-tetrahydropyrido[3,4-d]pyrimidine]",2720 nM,397 nM,937 nM,,,894 nM,548 nM,854 nM,741 nM,1180 nM,1150 nM
"CCc1cccc2cccc(N3CCc4c(nc(OCC56CCCN5CCC6)nc4N4CCCC(c5c[nH]cn5)C4)C3)c12 (centres unmarked) [Example 116, 4-(3-(1H-imidazol-4-yl)piperidin-1-yl)-7-(8-ethylnaphthalen-1-yl)-2-((tetrahydro-1H-pyrrolizin-7a(5H)-yl)methoxy)-5,6,7,8-tetrahydropyrido[3,4-d]pyrimidine]",3300 nM,462 nM,1790 nM,,,2100 nM,1160 nM,1490 nM,1110 nM,1670 nM,1640 nM
"CCc1cccc2cccc(N3CCc4c(nc(OCC56CCCN5CCC6)nc4N4CCCC(c5ccn(C)n5)C4)C3)c12 (centres unmarked) [Example 100, 7-(8-ethylnaphthalen-1-yl)-4-(3-(1-methyl-1H-pyrazol-3-yl)piperidin-1-yl)-2-((tetrahydro-1H-pyrrolizin-7a(5H)-yl)methoxy)-5,6,7,8-tetrahydropyrido[3,4-d]pyrimidine]",4420 nM,339 nM,2030 nM,,,1140 nM,1010 nM,1430 nM,828 nM,1370 nM,1400 nM
"CCc1cccc2cccc(N3CCc4c(nc(OCC56CCCN5CCC6)nc4N4Cc5ccnn5CC(O)C4)C3)c12 (centres unmarked) [Example 50, 5-(7-(8-ethylnaphthalen-1-yl)-2-((hexahydro-1H-pyrrolizin-7a-yl)methoxy)-5,6,7,8-tetrahydropyrido[3,4-d]pyrimidin-4-yl)-5,6,7,8-tetrahydro-4H-pyrazolo[1,5-a][1,4]diazepin-7-ol]",219 nM,284 nM,342 nM,,,613 nM,569 nM,330 nM,299 nM,800 nM,808 nM
"CCc1cccc2cccc(N3CCc4c(nc(OCC56CCCN5CCC6)nc4N4CCCC(c5n[nH]c(C)n5)C4)C3)c12 (centres unmarked) [Example 93, 7-(8-ethylnaphthalen-1-yl)-4-(3-(5-methyl-1H-1,2,4-triazol-3-yl)piperidin-1-yl)-2-((tetrahydro-1H-pyrrolizin-7a(5H)-yl)methoxy)-5,6,7,8-tetrahydropyrido[3,4-d]pyrimidine]",2620 nM,234 nM,701 nM,,,678 nM,427 nM,698 nM,256 nM,1100 nM,1240 nM

# — patent US12421253B2 (Mirati Therapeutics, Inc., priority 2020, dated 2025)
